Source: patent US20250195474A1, “Piezo Inhibition for Wound Healing” (priority 2022, published 2025)
No end group written: not given here.

Experiments:
[1] = test system: human foreskin xenograft wounds; test: Human foreskin xenograft wound model; type: in vivo; conditions: POD 14
Procedure: For the xenograft model, adult immunocompromised CD-1 nude mice were purchased from The Jackson Laboratory (Bar Harbor, ME). Mice were maintained at the Stanford University Research Animal Facility, SIM-1 Barrier Facility in accordance with Stanford University guidelines. All experiments were performed under an approved APLAC protocol (APLAC #11048). 3 mice were used for each group.
Discarded postnatal human foreskin samples were collected after circumcision at the Lucille Packard Children's Hospital at Stanford under a Stanford University Institutional Review Board (IRB) approved protocol (IRB #45219). Samples were not used if collected >8 hours after circumcision; samples were kept in Dulbecco's Modified Eagle Medium (ThermoFisher Scientific™, Waltham, MA) on ice until grafting. Foreskin was prepared by removal of all subcutaneous tissue, including muscle, and divided into 1 cm sections to be grafted.
Nude mice were induced and maintained with 2-4% isoflurane (Product: 502017, MWI Veterinary Supply Co.®; Boise, ID) at a rate of 2 L/min. While anesthetized, Betadine Surgical Scrub Veterinary (Avrio Health L.P.™, Stamford, CT) and sterile alcohol prep pads (FisherScientific™, Pittsburgh, PA) were used to prepare the dorsum. A 1.2 cm full-thickness excision of dorsal skin was created with forceps and sharp scissors. The foreskin graft was then placed into the full-thickness wound. […]

existing scars = test: Treatment of existing scars during remodeling (scar rescue); type: in vivo, mouse
Description: While wound re-epithelialization is complete relatively quickly (around 2 weeks), wounds continue to heal beneath the surface for months to years in a process known as scar remodeling. (Foster et al., 2021; Gurtner et al., 2008) Remodeling is the longest and least well understood phase of wound repair but is likely critical to ultimate outcomes. We postulated that ADFs could continue to play a role in scarring during the remodeling process; if this were the case, we wondered whether ADF activity could be targeted during wound remodeling, via P1i in existing, actively remodeling scars, to ultimately reduce scarring and drive regeneration (FIG. 6A,C). Thus, we administered P1i to existing scars at POD 30 (early remodeling period), POD 75 (mid-remodeling), and POD 120 (late remodeling), then harvested tissue one month later at POD 60, POD 105, and […] respectively (FIG. 6A, C).

dorsal excisional wounds = test: Splinted dorsal excisional wounding with inhibitor injected at POD 0; type: in vivo, mouse
wounds = test: CODEX spatial protein analysis of POD 14 wounds; type: in vivo, mouse; conditions: POD 14, vs PBS
Description: To spatially phenotype the pig specimens, we used Co-Detection by Indexing (CODEX), a novel assay in which markers are labeled with oligonucleotide-conjugated antibodies and iteratively imaged between cyclic additions and washouts of dye-labeled oligonucleotides. A custom CODEX panel was designed to assess wound cells within the tissue see Table 1). In brief, primary antibodies were individually barcoded and validated using the commercial supplier's protocols. OCT for mouse or paraffin blocks for human xenograft (n=3 per group) were sectioned at 8 μm thickness onto coverslips for CODEX antibody staining. Antigens were retrieved by standard citrate-EDTA processing prior to addition of CODEX antibodies. Using a CODEX-integrated Keyence BZ-X instrument (Akoya Biosciences) image acquisition was then performed. Using software from Akoya Biosciences the raw images were process, with cell segmentation, and rendering.
The CODEX was visualized using Akoya Biosciences Multiplex Analysis Viewer (MAV) in ImageJ. The resulting .fcs files were then concatenated in FlowJo and imported into the Monocle3 and STvEA R packages for further analysis. After debris removal, the processed UMAP manifold was analyzed through Monocle3 with a post-manifold threshold of >10,000 cells per cluster. Analysis of the protein staining patterns was then used to assign cell types. The cell interactions were then inferred using STvEA for cell types at >2.5% of total abundance at k=20 nearest neighbors to quantify cell spatial interactions, and differential interaction maps were generated using graph scores.

[2] = test system: human xenograft fibroblasts; test: scRNA-seq of human xenograft wounds at POD 14; type: in vivo
Procedure: To assess if P1i acts on similar fibroblast clusters to cause regeneration, scRNA-seq analysis was performed on xenografts harvested at POD 14 post injury using a hybrid human-mouse xeno-transcriptome (FIG. 12A). Mouse cells were removed informatically and subsequent analysis focused exclusively on human cells (FIG. 41A). Partitional analysis identified 8 transcriptionally distinct clusters (FIG. 12B-C), corresponding to fibroblast and keratinocyte populations (FIG. 41A). Each cluster was present in all three treatment conditions but Cluster 3 was elevated in P1i treated wounds (FIG. 12D, FIG. 41B). […] This cluster was also enriched for pathways such as “skin morphogenesis”, as well as “neural crest differentiation” (FIG. 12G). By contrast, Cluster 0 was enriched for pathways related to adipocyte differentiation (FIG. 41C) and elevated expression of genes related to adipocyte-fibroblast transition (FIG. 41C) including expression of JUN a transcription factor associated with fibrosis (FIG. 41D).

TRPC1 = TRPC1 (Homo sapiens, UniProt P48995); conditions: cited from earlier work
mouse adipocytes = test: Mouse adipocyte-populated collagen I hydrogels with or without mechanical stretch; conditions: 10% equibiaxial strain, 7 days; GsMTx4 500 nM, D-GsMTx4 500 nM, PF573228 10 uM, Verteporfin 300 nM
[3] = treated at POD 30, 75 or 120, harvested one month later

TRPC1, sequence (P48995 whole entry, species assumed): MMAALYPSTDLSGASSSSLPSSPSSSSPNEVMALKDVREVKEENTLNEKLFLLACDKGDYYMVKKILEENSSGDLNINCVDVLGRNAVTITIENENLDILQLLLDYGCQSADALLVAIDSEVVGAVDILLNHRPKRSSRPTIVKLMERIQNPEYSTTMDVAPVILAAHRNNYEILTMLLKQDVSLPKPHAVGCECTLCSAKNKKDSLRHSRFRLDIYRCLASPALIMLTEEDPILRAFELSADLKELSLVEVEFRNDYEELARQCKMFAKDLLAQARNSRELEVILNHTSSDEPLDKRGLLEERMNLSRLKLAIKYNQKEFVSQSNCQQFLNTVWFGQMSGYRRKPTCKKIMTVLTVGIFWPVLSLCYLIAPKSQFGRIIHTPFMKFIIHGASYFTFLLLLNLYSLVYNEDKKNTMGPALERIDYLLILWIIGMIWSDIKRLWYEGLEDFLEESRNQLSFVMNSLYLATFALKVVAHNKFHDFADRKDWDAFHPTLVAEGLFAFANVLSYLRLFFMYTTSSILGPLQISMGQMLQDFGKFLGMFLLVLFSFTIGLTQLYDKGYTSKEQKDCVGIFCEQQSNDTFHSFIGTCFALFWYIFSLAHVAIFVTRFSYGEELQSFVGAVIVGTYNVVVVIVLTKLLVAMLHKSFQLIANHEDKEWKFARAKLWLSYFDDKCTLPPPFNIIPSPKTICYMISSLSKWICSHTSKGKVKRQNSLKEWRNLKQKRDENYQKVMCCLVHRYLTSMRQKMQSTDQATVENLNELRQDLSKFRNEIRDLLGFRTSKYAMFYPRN

Question: With “GsMTx4 (GCLEFWWKCNPNDDKCCRPKLKCSKLFKLCNFSF; ends and bridges not checked; cysteine pairing not given here; UniProt Q7YT39 47-80, looked up) [P1i]” as the substance, how does the ECM ultrastructure [1] read?
Answer: indistinguishable from that of unwounded xenograft skin

Question: And the “organization of hair follicles” value (existing scars; POD 105 and 120 vs POD 60)?
Answer: less organized than those at POD 60

Question: And the “ADFs in late treated wounds” value (existing scars; late treatment of existing scars)?
Answer: significantly reduced

Question: What about the “ECM architecture in existing scars” value (existing scars; [3]) of the same substance?
Answer: full recovery of unwounded-like ECM architecture

Question: What about the “hair follicles in existing scars” value (existing scars; [3]) of the same substance?
Answer: return of hair follicles

Question: And the “wound regeneration in existing scars” value (existing scars; [3])?
Answer: near-complete wound regeneration

Question: What about the “time to complete wound re-epithelialization” value (dorsal excisional wounds; 30 uL of 0.2 mg/ml intradermal at wound edge, POD 0) of the same substance?
Answer: did not significantly affect

Question: And the “Oil Red O staining and IF for cytokeratins 14/19 (regenerating appendages)” value (dorsal excisional wounds; POD 14)?
Answer: presence of putative regenerating sebaceous glands/HF

Question: And the “mechanical properties (tensile testing, Young's modulus)” value (dorsal excisional wounds; POD 14)?
Answer: reverted scars to more unwounded-like mechanical properties

Question: What about the “adipocyte-derived fibroblasts (ADFs) in wounds” value (dorsal excisional wounds; POD 14, FACS and histology) of the same substance?
Answer: absent

Question: And the “structures consistent with unerupted hair follicles” value (dorsal excisional wounds; POD 14, single injection at POD 0)?
Answer: numerous structures morphologically consistent with unerupted hair follicles

Question: What about the “Col1 and α-SMA” value (dorsal excisional wounds; POD 14 and POD 30) of the same substance?
Answer: reduced

Question: What about the ECM density (dorsal excisional wounds; POD 14 and POD 30) of the same substance?
Answer: less dense

Question: And the hair follicle formation (dorsal excisional wounds; POD 30)?
Answer: allowed for hair follicle formation

Question: What about the “Lef1 (new hair follicle formation)” value (wounds) of the same substance?
Answer: highly expressed

Question: What about the “adipocyte-fibroblast spatial interactions (CODEX)” value (wounds) of the same substance?
Answer: reduced adipocyte-fibroblast interactions

Question: What about the “individual adipocyte-fibroblast subpopulation interactions (CODEX)” value (wounds) of the same substance?
Answer: enriching the interactions of adipocyte cluster 2 with fibroblast clusters 2 and 4

Question: And the “expression of TWIST2, WNT5A, CALU and SFRP2” value ([2]; POD 14)?
Answer: highly expressed

Question: And the “representation of human cluster 3” value ([2]; POD 14)?
Answer: elevated

Question: What about the “CellChat cluster 0 activity with other clusters” value ([2]; POD 14, vs control wounds) of the same substance?
Answer: downregulation

Question: What about the “block of TRPC1” value (TRPC1) of the same substance?
Answer: blocks

Question: What about the “stretch-induced phenotypic switch (losing adiponectin, expressing Col1)” value (mouse adipocytes) of the same substance?
Answer: abrogated
